Source: US20220071933A1, “COMBINATION REMEDY” (SYMRISE AG, priority 2019, published 2022)

Columns and labels:
[1] = system: HGT-1 parietal cell model; assay: Proton secretion assay (intracellular proton index, IPX) in the HGT-1 parietal cell model; format: cell-based; conditions: for IPX [induced by 50 mM AA] D: D stereoisomer; for IPX [induced by 50 mM AA] D / IPX [induced by 50 mM AA] L: 50 mM amino acid, HGT-1 cells, IPX based on log 2 data of intracellular proton concentration, lower IPX = more protons secreted; for IPX [induced by 50 mM AA] L: L stereoisomer; for acid modulating effect (indicator of satiety): among the amino acids listed in Table 1
Source text: The value of intracellular proton secretion (IPX) in the parietal cell model HGT-1 (proton secretion assay), which is a marker for gastric secretion, indicates the extent to which the amino acid is able to inhibit proton secretion and is thus indirectly a measure of saturation. The intracellular proton index (IPX) is based on log 2 data of intracellular proton concentration. The lower the IPX, the more protons are secreted. A low IPX is interpreted as stimulation of gastric acid, which in turn is a saturation signal.

[2] = sensory; cited from earlier work
dopamine release = conditions: about 0.03 mg/kg (equivalent to 0.1 μM); cited from earlier work
neurons = conditions: concentration range 0.01 μM to 10 μM (0.003 mg/kg to 3 mg/kg); cited from earlier work

Structure (SMILES) | IPX [induced by 50 mM AA] D [1] | IPX [induced by 50 mM AA] L [1] | also measured
NC(Cc1c[nH]c2ccccc12)C(=O)O (stereo not drawn) [TRP] | −0.04 ± 0.04 | −0.66 ± 0.23 | –
CCCCC/C=C/C=C/C(=O)NCC(C)C [pellitorin, Pellitorin] | – | – | detection threshold [2]: 0.1 mg/kg
N=C(N)NCCC[C@H](N)C(=O)O [ARG, arginine] | −2.37 ± 0.05 | −2.71 ± 0.11 | –
CCCCCCCCC(=O)NCc1ccc(O)c(OC)c1 [N-nonanoylvanillylamine, N-((4-hydroxy-3-methoxyphenyl-)methyl-)nonanamide] | – | – | stimulation of dopamine release after acetylcholine stimulation against the respective control (dopamine release): up to 700%; detection threshold [2]: 0.107 mg/kg; irritation threshold [2]: 0.054 mg/kg; stimulation of serotonin release in neurons against the respective control (neurons): up to 270%
NC(CO)C(=O)O (stereo not drawn) [SER] | 0.87 ± 0.10 | 1.40 ± 0.12 | –
CC(C)CC(N)C(=O)O (stereo not drawn) [LEU] | 1.10 ± 0.13 | 1.38 ± 0.14 | –
N=C(N)NCCC[C@H](N)C(=O)O [L-arginine] | – | – | acid modulating effect (indicator of satiety) [1]: best acid modulating effect
CC(C)C(N)C(=O)O (stereo not drawn) [VAL] | −0.44 ± 0.17 | 0.99 ± 0.05 | –
CCC(C)C(N)C(=O)O (stereo not drawn) [ILE] | −0.40 ± 0.04 | 0.58 ± 0.07 | –
CC(O)C(N)C(=O)O (stereo not drawn) [THR] | 1.57 ± 0.05 | 1.43 ± 0.10 | –
O=C(O)C1CCCN1 (stereo not drawn) [PRO] | 0.63 ± 0.09 | 0.44 ± 0.08 | –
NC(Cc1ccccc1)C(=O)O (stereo not drawn) [PHE] | 1.58 ± 0.10 | 0.50 ± 0.05 | –
N=C(N)NCCC[C@@H](N)C(=O)O [D-arginine] | – | – | acid modulating effect (indicator of satiety) [1]: best acid modulating effect
CC(N)C(=O)O (stereo not drawn) [ALA] | −0.35 ± 0.08 | 0.87 ± 0.10 | –
